{
  "source": "patent US20250099481A1",
  "about": "“BCL-2 INHIBITORS” (Newave Pharmaceutical Inc., priority 2022, published 2025)",
  "origin": "cited, not measured here",
  "key": {"[1]": {"system": "xenograft models of small-cell lung cancer and acute lymphoblastic leukemia", "settings": "oral administration alone"}, "Bcl-w": {"target": "T1, Bcl-w (Homo sapiens, UniProt Q92843)", "T1 sequence (Q92843 1-193)": "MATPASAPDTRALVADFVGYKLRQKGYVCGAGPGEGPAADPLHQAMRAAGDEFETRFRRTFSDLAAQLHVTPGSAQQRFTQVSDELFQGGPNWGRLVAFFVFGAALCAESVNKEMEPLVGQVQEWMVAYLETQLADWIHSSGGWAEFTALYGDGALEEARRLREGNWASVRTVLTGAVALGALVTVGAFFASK"}, "H345 xenograft": {"system": "H345 xenograft", "settings": "100 mg/kg/day, H345 xenograft model"}, "[2]": {"settings": "in vivo"}, "[3]": {"system": "DoHH2, Granta-519 xenografts", "settings": "single agent or in combination with Bendamustine and other agents"}, "[4]": {"system": "CLL who have 17p deletion", "settings": "Human Phase I and II data, CLL with 17p deletion"}, "CLL": {"system": "CLL", "settings": "read-out: average EC50, apoptosis"}, "RS4;11 xenografts": {"system": "RS4;11 xenografts", "settings": "single dose of 100 mg/kg"}},
  "data": [
    {"compound": "CC1(C)CCC(c2ccc(Cl)cc2)=C(CN2CCN(c3ccc(C(=O)NS(=O)(=O)c4ccc(N[C@H](CCN5CCOCC5)CSc5ccccc5)c(S(=O)(=O)C(F)(F)F)c4)cc3)CC2)C1", "note": "[ABT-263]", "values": [
      {"measurement": "IC50", "setting": "SCLC H146 cell line", "value": 110, "unit": "nM"},
      {"measurement": "number of circulating platelets", "setting": "circulating platelets; clinical trial, inhibition of BCL-XL", "value": "rapid, concentration-dependent decrease in the number of circulating platelets"},
      {"measurement": "dose-limiting toxicity", "setting": "circulating platelets; single-agent treatment in patients", "value": "thrombocytopenia is the dose-limiting toxicity"},
      {"measurement": "tumor response", "setting": "[1]", "value": "complete tumor regressions"},
      {"measurement": "Ki", "setting": "Bcl-w", "value": 1, "unit": "nM"},
      {"measurement": "TGI", "setting": "H345 xenograft", "value": 80, "unit": "%"},
      {"measurement": "treated tumors indicating at least a 50% reduction in tumor volume", "setting": "H345 xenograft", "value": 20, "unit": "%"}
    ]},
    {"compound": "CN(C)CC[C@H](CSc1ccccc1)Nc1ccc(S(=O)(=O)NC(=O)c2ccc(N3CCN(Cc4ccccc4-c4ccc(Cl)cc4)CC3)cc2)cc1[N+](=O)[O-]", "note": "[ABT-737]", "values": [
      {"measurement": "oral bioavailability", "setting": "[2]", "value": "not orally bioavailable"},
      {"measurement": "aqueous solubility", "value": "low aqueous solubility"},
      {"measurement": "efficacy in animal models", "setting": "established tumors", "value": "improves survival, causes regression of established tumors, and produces cures in a high percentage of the mice"}
    ]},
    {"compound": "ABT-199", "values": [
      {"measurement": "xenograft growth", "setting": "[3]", "value": "inhibits xenograft growth"},
      {"measurement": "clinical efficacy", "setting": "[4]", "value": "highly efficacious"},
      {"measurement": "EC50", "setting": "CLL", "value": 3, "unit": "nM"},
      {"measurement": "EC50", "setting": "RS4;11 cells", "value": 8, "unit": "nM"},
      {"measurement": "apoptosis induction", "setting": "RS4;11 cells; cytochrome c release, caspase activation, accumulation of sub-G0/G1 DNA", "value": "induces a rapid apoptosis"},
      {"measurement": "maximal tumor growth inhibition", "setting": "RS4;11 xenografts", "value": 95, "unit": "%"},
      {"measurement": "tumor growth delay", "setting": "RS4;11 xenografts", "value": 152, "unit": "%"}
    ]}
  ]
}
